Test results reported in patent US20230212144A1, “5-MEMBERED HETEROARYL DERIVATIVE CONTAINING AT LEAST ONE N, AND PHARMACEUTICAL COMPOSITION FOR PREVENTING OR TREATING MENTAL DISORDERS, CONTAINING SAME AS ACTIVE INGREDIENT” (DAEGU-GYEONGBUK MEDICAL INNOVATION FOUNDATION, priority 2020, published 2023).

What was measured:
[1] = target: serotonin transporter (SERT) (Homo sapiens, UniProt P31645); experiment: Serotonin reuptake inhibition, [3H]-5-HT, cells transfected with 5-HT transporter cDNA; details: for Triple reuptake inhibition (Ratio %) SERT: compound 1 μM, relative to control without compound (100%), lower value = stronger inhibition
Experimental: (§1) After removing the medium, each compound of Examples or Comparative Examples diluted to 1 μM in uptake buffer was added to a concentration of 200 μL/well and cultured at 37° C. for 15 minutes. 100 μL of uptake buffer containing 20-30 nM [3H]-DA was added and cultured at 37° C. for 5 minutes. The reaction solution was quickly removed and washed three times with 1 mL ice-cold uptake buffer. After dissolving the resultant in 1% SDS (0.5 mL), the degree of binding of radioisotope-labeled dopamine to the transporter was measured.
(§2) For norepinephrine(NE) and serotonin(5-HT), the degree of binding of radioisotope-labeled norepinephrine or serotonin to the transporter was measured in the same manner as above, except that cells transfected with NE or 5-HT transporter cDNA were used and [3H]-NE or [3H]-5-HT was used as a substrate.
(§3) In addition, when evaluating the reuptake inhibitory effect on dopamine, norepinephrine, and serotonin, the same method was performed without treating each compound of Examples or Comparative Examples as a control, the degree of binding of radioisotope-labeled dopamine, norepinephrine, and serotonin to the transporter was measured, and by using this as a reference (100%), the triple reuptake inhibitory effect was evaluated as a relative ratio (Ratio %). That is, in the control group, the binding of dopamine, norepinephrine, and serotonin to transporters is not inhibited, but when each compound of Examples is treated and thus the binding is inhibited, the Ratio % value decreases.

[2] = target: norepinephrine transporter (NET) (Homo sapiens, UniProt P23975); experiment: Norepinephrine reuptake inhibition, [3H]-NE, cells transfected with NE transporter cDNA; details: for Triple reuptake inhibition (Ratio %) NET: compound 1 μM, relative to control without compound (100%), lower value = stronger inhibition
Experimental: as §1, §2, §3

[3] = target: dopamine transporter (DAT) (Homo sapiens, UniProt Q01959); experiment: Dopamine reuptake inhibition, [3H]-DA, HEK-293 cells transfected with dopamine transporter cDNA; details: for Triple reuptake inhibition (Ratio %) DAT: compound 1 μM, relative to control without compound (100%), lower value = stronger inhibition
Chain of dopamine transporter (DAT) (Q01959 whole entry, species assumed): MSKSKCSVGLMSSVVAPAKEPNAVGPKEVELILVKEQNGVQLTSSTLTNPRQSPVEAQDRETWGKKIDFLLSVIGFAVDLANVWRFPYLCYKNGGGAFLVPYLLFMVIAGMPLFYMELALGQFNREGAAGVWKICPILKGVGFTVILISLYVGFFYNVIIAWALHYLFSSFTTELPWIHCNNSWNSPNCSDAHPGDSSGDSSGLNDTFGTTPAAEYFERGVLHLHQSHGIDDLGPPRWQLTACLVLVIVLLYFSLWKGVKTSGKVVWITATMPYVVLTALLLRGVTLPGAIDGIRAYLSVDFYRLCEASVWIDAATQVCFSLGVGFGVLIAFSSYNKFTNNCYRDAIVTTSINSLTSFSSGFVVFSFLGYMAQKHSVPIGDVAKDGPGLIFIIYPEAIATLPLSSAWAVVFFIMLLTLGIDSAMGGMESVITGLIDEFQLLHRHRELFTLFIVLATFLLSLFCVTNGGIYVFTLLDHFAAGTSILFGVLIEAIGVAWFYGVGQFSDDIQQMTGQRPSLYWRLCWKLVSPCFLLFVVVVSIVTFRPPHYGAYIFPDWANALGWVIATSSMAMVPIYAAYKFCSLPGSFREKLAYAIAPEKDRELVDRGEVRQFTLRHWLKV
Experimental: as §1, §3

Chain of serotonin transporter (SERT) (P31645 whole entry, species assumed): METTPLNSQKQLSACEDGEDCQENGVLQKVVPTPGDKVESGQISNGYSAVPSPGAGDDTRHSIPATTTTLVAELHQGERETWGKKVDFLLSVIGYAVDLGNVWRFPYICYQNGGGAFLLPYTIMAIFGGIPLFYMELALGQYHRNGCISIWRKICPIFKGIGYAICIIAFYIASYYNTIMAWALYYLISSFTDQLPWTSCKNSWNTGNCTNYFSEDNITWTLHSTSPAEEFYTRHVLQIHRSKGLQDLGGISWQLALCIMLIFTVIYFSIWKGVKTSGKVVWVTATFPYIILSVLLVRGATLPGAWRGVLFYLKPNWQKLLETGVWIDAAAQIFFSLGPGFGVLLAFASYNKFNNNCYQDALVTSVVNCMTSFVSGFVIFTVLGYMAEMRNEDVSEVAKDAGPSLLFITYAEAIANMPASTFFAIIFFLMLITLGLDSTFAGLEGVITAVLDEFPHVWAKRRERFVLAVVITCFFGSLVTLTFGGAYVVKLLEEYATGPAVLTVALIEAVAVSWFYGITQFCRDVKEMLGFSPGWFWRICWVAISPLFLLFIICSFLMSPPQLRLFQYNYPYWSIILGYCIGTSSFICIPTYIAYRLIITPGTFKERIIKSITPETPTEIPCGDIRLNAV
Chain of norepinephrine transporter (NET) (P23975 whole entry, species assumed): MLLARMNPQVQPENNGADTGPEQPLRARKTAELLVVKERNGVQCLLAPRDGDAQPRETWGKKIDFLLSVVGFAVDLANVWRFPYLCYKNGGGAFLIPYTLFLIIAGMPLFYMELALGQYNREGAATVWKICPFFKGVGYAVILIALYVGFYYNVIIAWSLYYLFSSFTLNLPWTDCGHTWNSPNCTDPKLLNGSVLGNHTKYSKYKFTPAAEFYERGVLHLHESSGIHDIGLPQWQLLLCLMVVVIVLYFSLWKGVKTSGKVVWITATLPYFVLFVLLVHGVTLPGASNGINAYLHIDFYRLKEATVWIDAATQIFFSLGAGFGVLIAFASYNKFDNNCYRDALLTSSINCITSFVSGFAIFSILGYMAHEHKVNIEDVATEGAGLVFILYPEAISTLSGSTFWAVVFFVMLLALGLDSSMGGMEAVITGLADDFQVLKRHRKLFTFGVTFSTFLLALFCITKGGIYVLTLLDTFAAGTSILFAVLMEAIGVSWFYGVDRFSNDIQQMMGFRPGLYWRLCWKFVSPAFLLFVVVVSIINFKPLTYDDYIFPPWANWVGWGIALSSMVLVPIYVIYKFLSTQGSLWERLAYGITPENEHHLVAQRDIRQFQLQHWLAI

| Compound | Triple reuptake inhibition (Ratio %) SERT [1] [%] | Triple reuptake inhibition (Ratio %) NET [2] [%] | Triple reuptake inhibition (Ratio %) DAT [3] [%] | IC50 [1] [nM] | IC50 [2] [nM] | IC50 [3] [nM] |
| --- | --- | --- | --- | --- | --- | --- |
| COc1cccc2c(-c3nnc(CN4CCC(Cc5ccc(Cl)c(Cl)c5)CC4)[nH]3)c[nH]c12 [Example 45, 3-(5-((4-(3,4-dichlorobenzyl)piperidin-1-yl)methyl)-4H-1,2,4-triazol-3-yl)-7-methoxy-1H-indole] | 21.98 | 112.38 | 72.49 | – | – | – |
| N#Cc1ccc(-c2nnc(CN3CCC(Cc4ccccc4)CC3)[nH]2)cc1 [Example 46, 4-(5-((4-benzylpiperidin-1-yl)methyl)-4H-1,2,4-triazol-3-yl)benzonitrile] | 60.13 | 53.00 | 13.85 | 2980 | 816 | 203 |
| Fc1ccc(-c2nnc(CN3CCC(Cc4ccccc4)CC3)[nH]2)cc1 [Example 47, 4-benzyl-1-((5-(4-fluorophenyl)-4H-1,2,4-triazol-3-yl)methyl)piperidine] | 51.93 | 68.26 | 20.47 | 10700 | 1170 | 372 |
| COc1ccc(-c2nnc(CN3CCC(Cc4ccccc4)CC3)[nH]2)cc1OC [Example 48, 4-benzyl-1-((5-(3,4-dimethoxyphenyl)-4H-1,2,4-triazol-3-yl)methyl)piperidine] | 53.41 | 23.52 | 20.20 | 2560 | 348 | 134 |
| FC(F)(F)Oc1ccc(-c2nnc(CN3CCC(Cc4ccccc4)CC3)[nH]2)cc1 [Example 49, 4-benzyl-1-((5-(4-(trifluoromethoxy)phenyl)-4H-1,2,4-triazol-3-yl)methyl)piperidine] | 63.99 | 44.81 | 11.41 | 1770 | 475 | 223 |
| FC(F)(F)c1ccc(-c2nnc(CN3CCC(Cc4ccccc4)CC3)[nH]2)cc1 [Example 50, 4-benzyl-1-((5-(4-(trifluoromethyl)phenyl)-4H-1,2,4-triazol-3-yl)methyl)piperidine] | 66.02 | 27.46 | 20.84 | 5700 | 176 | 236 |
| CC(=O)Nc1ccc(-c2nnc(CN3CCC(Cc4ccccc4)CC3)[nH]2)cc1 [Example 51, N-(4-(5-((4-benzylpiperidin-1-yl)methyl)-4H-1,2,4-triazol-3-yl)phenyl)acetamide] | 38.36 | 56.36 | 75.88 | – | – | – |
| Oc1ccc2cc(-c3nnc(CN4CCC(Cc5ccccc5)CC4)[nH]3)ccc2c1 [Example 52, 6-(5-((4-benzylpiperidin-1-yl)methyl)-4H-1,2,4-triazol-3-yl)naphthalen-2-ol] | 52.31 | 50.92 | 48.72 | – | – | – |
| c1ccc(CC2CCN(Cc3nnc(-c4ccc(Oc5ccccc5)cc4)[nH]3)CC2)cc1 [Example 53, 4-benzyl-1-((5-(4-phenoxyphenyl)-4H-1,2,4-triazol-3-yl)methyl)piperidine] | 77.61 | 28.99 | 52.90 | – | – | – |
| FC(F)(F)Oc1cccc(-c2nnc(CN3CCC(Cc4ccccc4)CC3)[nH]2)c1 [Example 54, 4-benzyl-1-((5-(3-(trifluoromethoxy)phenyl)-4H-1,2,4-triazol-3-yl)methyl)piperidine] | 88.15 | 52.40 | 38.97 | – | – | – |
| FC(F)(F)c1cccc(-c2nnc(CN3CCC(Cc4ccccc4)CC3)[nH]2)c1 [Example 55, 4-benzyl-1-((5-(3-(trifluoromethyl)phenyl)-4H-1,2,4-triazol-3-yl)methyl)piperidine] | 86.78 | 66.71 | 40.14 | – | – | – |
| COc1ccc2c(-c3nnc(CN4CCC(Cc5ccccc5)CC4)[nH]3)c[nH]c2c1 [Example 56, 3-(5-((4-benzylpiperidin-1-yl)methyl)-4H-1,2,4-triazol-3-yl)-6-methoxy-1H-indole] | 15.26 | 39.66 | 45.52 | 300 | 640 | 1200 |
| NC(=O)c1ccc2[nH]c(-c3nnc(CN4CCC(Cc5ccccc5)CC4)[nH]3)cc2c1 [Example 57, 2-(5-((4-benzylpiperidin-1-yl)methyl)-4H-1,2,4-triazol-3-yl)-1H-indol-5-carboxamide] | 56.55 | 37.21 | 20.95 | 580 | 463 | 208 |
| CN(C)CCNC(=O)c1ccc(-c2nnc(CN3CCC(Cc4ccccc4)CC3)[nH]2)cc1 [Example 58, 4-(5-((4-benzylpiperidin-1-yl)methyl)-4H-1,2,4-triazol-3-yl)-N-(2-(dimethylamino)ethyl)benzoamide] | 50.24 | 76.51 | 77.67 | – | – | – |
| COc1ccc2c(-c3nnc(CN4CCC(Cc5ccc(Cl)c(Cl)c5)CC4)[nH]3)c[nH]c2c1 [Example 59, 3-(5-((4-(3,4-dichlorobenzyl)piperidin-1-yl)methyl)-4H-1,2,4-triazol-3-yl)-6-methoxy-1H-indole] | 31.88 | 77.82 | 75.06 | 226 | – | – |
| COC(=O)c1cccc2c(-c3nnc(CN4CCC(Cc5ccc(Cl)c(Cl)c5)CC4)[nH]3)c[nH]c12 [Example 60, methyl 3-(5-((4-(3,4-dichlorobenzyl)piperidin-1-yl)methyl)-4H-1,2,4-triazol-3-yl)-1H-indol-7-carboxylate] | 61.70 | 95.63 | 94.44 | 1870 | – | – |
| FC(F)(F)Oc1ccc(-c2nnc(CN3CCC(Cc4ccc(Cl)c(Cl)c4)CC3)[nH]2)cc1 [Example 61, 4-(3,4-dichlorobenzyl)-1-((5-(4-(trifluoromethoxy)phenyl)-4H-1,2,4-triazol-3-yl)methyl)piperidine] | 82.77 | 48.25 | 59.39 | – | – | – |
| FC(F)(F)c1ccc(-c2nnc(CN3CCC(Cc4ccc(Cl)c(Cl)c4)CC3)[nH]2)cc1 [Example 62, 4-(3,4-dichlorobenzyl)-1-((5-(4-(trifluoromethyl)phenyl)-4H-1,2,4-triazol-3-yl)methyl)piperidine] | 79.73 | 36.41 | 52.96 | – | – | – |
| COC(=O)c1ccc(-c2nnc(CN3CCC(Cc4ccccc4)CC3)[nH]2)cc1N [Example 63, methyl 2-amino-4-(5-((4-benzylpiperidin-1-yl)methyl)-4H-1,2,4-triazol-3-yl)benzoate] | 61.10 | 27.25 | 26.54 | 1840 | 327 | 221 |
| Fc1ccc2[nH]c(-c3nnc(CN4CCN(Cc5ccccc5)CC4)[nH]3)cc2c1 [Example 64, 2-(5-((4-benzylpiperazin-1-yl)methyl)-4H-1,2,4-triazol-3-yl)-5-fluoro-1H-indole] | 91.98 | 64.96 | 32.65 | – | – | – |
| Clc1ccc2[nH]c(-c3nnc(CN4CCN(Cc5ccccc5)CC4)[nH]3)cc2c1 [Example 65, 2-(5-((4-benzylpiperazin-1-yl)methyl)-4H-1,2,4-triazol-3-yl)-5-chloro-1H-indole] | 92.53 | 67.11 | 28.61 | – | – | – |
